Source: US20260215432A1, “ANTIMICROBIAL CONJUGATED OLIGOELECTROLYTES AND METHODS THEREOF” (National University of Singapore, priority 2023, published 2026)

Legend:
MRSA [1] = assay: Transmission electron microscopy of treated cells; assay type: cell-based, S. aureus; conditions: 4 μg mL^−1 for 30 minutes
Experimental: Damage to the bacterial cell membrane was observed by transmission electron microscopy (TEM). S. aureus cells were incubated with DM6P at 4 μg mL^−1 for 30 minutes and fixed immediately to preserve the membrane ultrastructure as close to the point of cell death as possible. […] In FIG. 7d, cytoplasmic membrane separation, which is a key hallmark of plasmolysis was also observed in a cell, presumably in an earlier stage of death prior to leakage of intracellular components. These observations are consistent with micrographs from cells treated by membrane active AMPs Gramicidin S and PGLa. Taken together, these morphological features are in line with the central idea that TPP-COEs induce damage to the cellular membrane, similar to previously studied COEs. Cellular leakage, protein delocalization and inactivation, and small-molecule permeation are downstream observations frequently associated with cell membrane perturbations.
A mid-log culture of MRSA was treated either with DM6P at 4 Ig mL^−1 or PBS (control) and incubated for 30 minutes. Cells were then fixed with 4% glutaraldehyde at 4° C. overnight and collected by centrifugation (7000 rpm, 10 minutes). The cell pellets were post-fixed with 0.2% OsO4, serially dehydrated in a graded ethanol series, and embedded in an epoxy resin. […]

[2] = tested on: Staphylococcus pseudintermedius; assay: Mouse wound infection model, S. pseudintermedius; assay type: in vivo, mice; conditions: for average CFU: S. pseudintermedius mouse wound
Text: Staphylococcus pseudintermedius (SP) is particularly pathogenic towards dogs, with skin infections such as pyoderma being characterized by a lengthy treatment period and high treatment failure due to antimicrobial resistance. Here, we show high in vivo antimicrobial efficacy of compounds of FIG. 11 in a mouse wound infection model, featuring over a 3-log reduction in bacterial load at low concentrations. The grouping tested with saline has an average CFU of 5.16×10^8 CFU/g. The grouping tested with DM6P (0.1 mg/kg) has an average CFU of 1.62×10^7 CFU/g. The grouping tested with DM6P (0.25 mg/kg) has an average CFU of 5.51×10^5 CFU/g.
For testing against Staphylococcus pseudintermedius, C57BL/6[SPF] mice (female, 18-20 g) were first acclimated, weighed and grouped based on body weight into 3 groups. Mice were anaesthetized and the hair at the back will be shaved and removed. A 6 mm-diameter excisional wound was created on the back of each mouse, and log-phase Staphylococcus pseudintermedius (Sp strain) (in 5 μL PBS) will be inoculated onto the wound. A 3M tegaderm will be used to cover the wound site from contamination. 2 h post infection, the groups were tested with saline, DM6P (0.1 mg/kg) and DM6P (0.25 mg/kg) respectively, by adding directly to wound site. At 12 h and 24 h post infection, sampling and colony enumeration were conducted. At 24 h post infection, all mice were sacrificed and the wound tissue harvested into 1 mL PBS.

MRSA [3] = assay: Resistance development by serial passaging at 0.5× MIC; assay type: cell-based, S. aureus
Experimental: The non-specific action of membrane-active antibiotics lends itself to minimal development of resistance development due to the large metabolic burden involved, unlike traditional antibiotics with a well-defined enzymatic target. Based on this premise, we passaged bacteria incubated with DM6P, or ciprofloxacin (control), at 0.5× MIC to investigate the adaptation of bacteria towards external antibiotic stress. As a control, treatment of MRSA with ciprofloxacin gave rise to antibiotic-resistant mutants within 4 passages, see FIG. 4a. […] Combined with its broad spectrum of activity, this feature opens opportunities for the use of COE antimicrobial agents to address polymicrobial infections with a lower rate of emerging antibiotic resistance.

S. aureus (ATCC 29213) = assay: MIC, broth microdilution in CA-MHB; assay type: cell-based
Experimental: (§1) Antimicrobial activity was screened against a range of pathogens made up of clinically relevant ESKAPE pathogens by determination of the minimum inhibitory concentration (MIC) in cation-adjusted Mueller-Hinton broth (CA-MHB).
(§2) Minimum inhibitory concentrations of COEs were determined through a broth microdilution method in accordance with the Clinical and Laboratory Standards Institute (CLSI) guidelines M07-A10. A single bacterial colony was isolated from an overnight culture and grown to mid-log phase (OD600~0.8). Compounds were prepared as a stock solution in DMSO and diluted in a sterile flat-bottom 96-well plate in CA-MHB. Subsequent concentrations were prepared by two-fold dilution of the initial solution. An equivalent volume of bacteria was added to the compound to a final concentration of 5×10^5 cfu/mL. Plates were incubated at 37° C. for 16-18 hours, and read at OD600 using a microplate reader (TECAN Spark®). […] MIC values were determined for each compound in triplicate.

[4] = tested on: K. pneumoniae (carbapenem-resistant Enterobacterales) (ATCC BAA1705); assay: MIC, broth microdilution in CA-MHB; assay type: cell-based
Experimental: as §1, §2

[5] = tested on: P. aeruginosa (ATCC47085); assay: MIC, broth microdilution in CA-MHB; assay type: cell-based
Experimental: as §1, §2

E. facium (ATCC 19434) = assay: MIC, broth microdilution in CA-MHB; assay type: cell-based; conditions: CA-MHB
Experimental: as §1, §2

A. baumanii (ATCC 17978) = assay: MIC, broth microdilution in CA-MHB; assay type: cell-based
Experimental: as §1, §2

[6] = tested on: Methicillin-resistant S. aureus (ATCC BAA1717); assay: MIC, broth microdilution in CA-MHB; assay type: cell-based
Experimental: as §1, §2

[7] = tested on: E. faecalis OG1RF (ATCC 47077); assay: MIC, broth microdilution in CA-MHB; assay type: cell-based
Experimental: as §1, §2

[8] = tested on: E. coli. K12 (ATCC 10798); assay: MIC, broth microdilution in CA-MHB; assay type: cell-based
Experimental: as §1, §2

COc1cc(/C=C/c2ccc(OCCCCCC[P+](c3ccccc3)(c3ccccc3)c3ccccc3)c(OC)c2)ccc1OCCCCCC[P+](c1ccccc1)(c1ccccc1)c1ccccc1.[I-].[I-] [DM6P]
membrane damage by TEM (MRSA [1]): visible cellular shrinkage and membrane disintegration
average CFU ([2]; 0.1 mg/kg): 1.62×10^7 CFU/g
average CFU ([2]; 0.25 mg/kg): 5.51×10^5 CFU/g
tolerability (side effects) ([2]; mice, following compound administration): did not show any negative side effects
resistance development (MRSA [3]): did not induce any observable resistant mutants
MIC SA (S. aureus (ATCC 29213)): 1 µg/mL
MIC KP ([4]; CA-MHB): 8 µg/mL
MIC ([4]; strain CRKP, Table 5): 8 µg/mL
MIC PA ([5]; CA-MHB): 4 µg/mL
MIC ([5]; strain PA, Table 5): 4 µg/mL
MIC FAC (E. facium (ATCC 19434)): 1 µg/mL
MIC AB (A. baumanii (ATCC 17978); CA-MHB): 8 µg/mL
MIC (A. baumanii (ATCC 17978); strain AB, Table 5): 8 µg/mL
MIC MRSA ([6]; CA-MHB): 1 µg/mL
MIC ([6]; strain MRSA, Table 5): 1 µg/mL
MIC ([6]; towards MRSA, Table 3): 1 µg/mL
MIC FAE ([7]; CA-MHB): 1 µg/mL
MIC ([7]; strain EF, Table 5): 1 µg/mL
MIC EC ([8]; CA-MHB): 2 µg/mL
MIC ([8]; strain EC, Table 5): 2 µg/mL
